Test results published in patent publication EP0505220A1, “New compounds for use in the treatment of cancer” (JARMAN, Michael, priority 1991, dated 1992).

Legend:
[1] = Stability of the hydroxymethyl function in human plasma (HPLC); type: in vitro ADME; settings: human plasma at 37°C, 100 µg/ml; read-out: half-life values for the release of product (9) in human plasma
Description: Stability Studies. The influence of the trifluoromethyl substituent on the stability of the hydroxymethyl function under simulated physiological conditions was determined for compound (10) containing contiguous hydroxymethyl and […] functions. General Procedure (for 10). To fresh human plasma (9.9 ml) pre-warmed to 37°C was added a solution of the compound to be studied in dimethylsulphoxide (0.1 ml; 10mg/ml) to give a final concentration of 100 µg/ml. At intervals of 0, 5, 10, 15, 20, 30, 40, 50, 60, 75, 90, 105 and 120 min, aliquots (0.5 ml) were withdrawn and added to ice-cold MeOH (1ml). After centrifugation at 4°C the supernatants were placed in cooled vials on a cold plate (3°C) and aliquots (25 µl) analysed by HPLC using an autosampler. The column used was a C6 (Spherisorb) 15cm x 4.6 mm with a precolumn, and was eluted with MeOH:0.05 M aq. NH₄HCO₃, 55:45, at a flow rate of 1.5 ml min⁻¹. Products were monitored by absorbance at 225 nm. Retention times were: for (10) 11.0 min and for its breakdown product (9) 9.6 min. […] Biological Results. The anti-tumour activities of the compounds of the invention against ADJ/PC6 tumour in mice and against human ovarian tumour cell lines were compared with that of trimelamol (1).

ADJ/PC6 tumour = assay: Antitumour activity towards the ADJ/PC6 tumour in mice; type: in vivo; settings: for Highest % inhibition: dose (mg/kg)
[2] = tested on: GCT human testicular germ cell tumour cell line; assay: Activity in vitro towards GCT cell line; type: cell-based; settings: at least in duplicate, read-out: IC₅₀ GCT
Description: (§1) Results expressed as µM (IC₅₀ values). All experiments were conducted at least in duplicate.

[3] = tested on: GCT/CIS R 6-fold platinum resistant variant of above; assay: Activity in vitro towards GCT/CIS R cell line; type: cell-based; settings: Homo sapiens; 6-fold platinum resistant variant of GCT; at least in duplicate; read-out: IC₅₀ GCT/CIS R
Description: as §1

[4] = Toxicity (LD50) in the ADJ/PC6 mouse study; settings: in vivo
PC6 Murine plasmacytoma = assay: Activity in vitro towards PC6 cell line; type: cell-based; settings: for IC50: PC-6, PC6 Murine plasmacytoma, at least in duplicate, read-out: IC₅₀ PC6
Description: as §1

[5] = tested on: human ovarian tumour cell lines; assay: Activity in vitro towards ovarian cell lines; type: cell-based; settings: Table 4 (image)
[6] = tested on: L-1210 murine lymphocytic leukaemia; assay: Activity in vitro towards L-1210 cell line; type: cell-based; settings: Mus musculus, L1210, at least in duplicate, read-out: IC₅₀ L-1210
Description: as §1

[7] = tested on: cisplatin-resistant cell-lines; assay: Activity in vitro towards cisplatin-resistant cell lines; type: cell-based, human; settings: Table 4 (image)
Source text: Of particular interest is that compounds (5) and (13) show high activity against cisplatin-resistant cell-lines.

[8] = Judson et al. 1989; cited from earlier work
[9] = tested on: H69 human small cell lung cancer cell line; assay: Activity in vitro towards H69 cell line; type: cell-based; settings: NCI-H69, at least in duplicate, read-out: IC₅₀ H69
Description: as §1

CN(C)c1nc(N(C)C)nc(N(C)CO)n1 [N-hydroxymethylpentamethylmelamine, reference compound] gave a half-life [1] of 30 min.

With OCOCN(CC(F)(F)F)c1nc(N(CO)CC(F)(F)F)nc(N(CO)CC(F)(F)F)n1 [Compound 6, 2-[([hydroxymethoxy]methyl)(2,2,2-trifluoroethyl)amino]-4,6-bis(hydroxymethyl)(2,2,2-trifluoroethyl)-amino-1,3,5-triazine] the Highest % inhibition (ADJ/PC6 tumour) was 65 (5 x 12.5) %, the IC50 [2] was 25.8 µM and the IC50 [3] was 23.7 µM. For the same molecule, the LD50 [4] was 280 mg/kg and the IC50 (PC6 Murine plasmacytoma) was 34.4 µM.

With OCN(CC(F)(F)F)c1nc(NCC(F)(F)F)nc(NCC(F)(F)F)n1 [Compound 4, 2-(Hydroxymethyl)(2,2,2-trifluoroethyl)amino-4,6-bis[(2,2,2-trifluoroethyl)amino]-1,3,5-triazine] the Highest % inhibition (ADJ/PC6 tumour) was 40 (5 x 50) % and the LD50 [4] was 117 mg/kg.

For C#CCN(CO)c1nc(N(CO)CC#C)nc(N(CO)CC#C)n1 [Compound 13, 2,4,6-Tris[(hydroxymethyl)(propargyl)amino]-1,3,5-triazine], the Highest % inhibition (ADJ/PC6 tumour) was “none (none - less than 40%)”, the “potency in a variety of ovarian cell lines compared with (1)” value [5] was “virtually equipotent with (1)” and the IC50 [6] was 50.7 µM. The IC50 [2] was 48.9 µM, the IC50 [3] was 41.8 µM and the “activity against cisplatin-resistant cell-lines” value [7] was “high activity”. The LD50 [4] was 280 mg/kg and the IC50 (PC6 Murine plasmacytoma) was 36.8 µM.

For CN(CO)c1nc(N(C)CO)nc(N(C)CO)n1 [Compound 1, 2,4,6-tris{(hydroxymethyl)(methyl)amino}-1,3,5-triazine, reference compound], the half-life in humans [8] is listed as “short”, the “Therapeutic Index LD50/ED90” value (ADJ/PC6 tumour) is listed as 3.1 and the ED90 (ADJ/PC6 tumour; Mus musculus) is listed as 45 mg/kg. For the same molecule, the Highest % inhibition (ADJ/PC6 tumour) was 96 (5 x 100) %, the IC50 [6] was 41.7 µM and the IC50 [2] was 24.3 µM. For the same molecule, the IC50 [3] was 25.9 µM, the LD50 [4] was 140 mg/kg and the “potency against the ADJ/PC6 tumour cell line in vitro relative to the other compounds” value (PC6 Murine plasmacytoma; (1) versus (5), (6) and (13)) was “greater than 3 fold”. For the same molecule, the IC50 (PC6 Murine plasmacytoma) was 10.1 µM and the IC50 [9] was 8.7 µM.

With “2-(Hydroxyethyl)(2,2,2-trifluoroethyl)amino-4-methyl-6-(2,2,2-trifluoroethyl)amino-1,3,5-triazine [Compound 7]” the Highest % inhibition (ADJ/PC6 tumour) was 56 (5 x 25) %.

With FC(F)(F)CNc1nc(NCC(F)(F)F)nc(NCC(F)(F)F)n1 [Compound 3, 2,4,6-Tris[(2,2,2-Trifluoroethyl)amino]-1,3,5-triazine] the Highest % inhibition (ADJ/PC6 tumour) was “none^b (none - less than 40%)” and the LD50 [4] was 71 mg/kg.

Work on CN(C)c1nc(N(C)C)nc(N(CO)CC(F)(F)F)n1 [Compound 10, 2,4-Bis(Dimethylamino)-6-(hydroxymethyl)(2,2,2,trifluoroethyl)-amino-1,3,5-triazine] yielded a half-life [1] of 45 min.

In the case of OCN(CC(F)(F)F)c1nc(N(CO)CC(F)(F)F)nc(N(CO)CC(F)(F)F)n1 [Compound 5, 2,4,6-Tris[(Hydroxymethyl)(2,2,2-trifluoroethyl)amino]-1,3,5-triazine], the “potency in a variety of ovarian cell lines compared with (1)” value [5] is reported as “virtually equipotent with (1)”, the IC50 [6] is reported as 48.6 µM and the “activity against cisplatin-resistant cell-lines” value [7] is reported as “high activity”. The IC50 (PC6 Murine plasmacytoma) was 38.2 µM.
